Columns and labels:
Assay type in all cases: biochemical
[1] = molecular target: Factor XIa (Homo sapiens (Human), UniProt P03951); assay: Factor XIa enzyme inhibition assay (dose response, fluorogenic AMC substrate); details: read-out: hFXIa IC50
How it was run: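 Fluorogenic progress curves (30 min, 1-min reads, 30° C) were recorded for 0.25 nM FXIa cleaving 50 μM Glp-Pro-Arg-AMC in Hepes pH 7.4 buffer with NaCl and Tween 20. Compounds were serially two-fold diluted, and IC50 was fitted with a Hill equation.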

[2] = tested on: Trypsin; assay: Dose response assay for protease inhibitors: trypsin; details: selectivity, trypsin over Factor XIa
Method: (§1) • Assay buffer: 20 mM Hepes, pH 7.4; 150 mM NaCl; 0.02% Tween 20 • Compounds: 10 mM stocks in DMSO • Substrate: 20 mM Glp-Pro-Arg-AMC, 25 mg/2.3 mL H2O (store at +4° C.) [Factor XIa, thrombin, and trypsin] • 20 mM Pro-Phe-Arg-AMC (Bachem I-1295), 25 mg/2.2 mL H2O • or Boc-Leu-Gly-Arg-AMC (Bachem I-1105), 25 mg/2.07 mL H2O • (store at +4° C.) [Factor Xa] • Enzyme: Factor XIa; 0.25 μM in 50% glycerol (20 μg/mL) • Trypsin; 0.2 μM in 50% glycerol (4.8 μg/mL) • Thrombin; 0.2 μM in 50% glycerol (7.34 μg/mL) • Factor Xa; 0.2 μM in 50% glycerol (9.2 μg/mL) • These stocks are aliquoted (˜100 μL/aliquot) and stored at −20° C. Methods: • 1. Dilute the substrate to 100 μM in assay buffer (30 μL/6 mL). The enzyme is diluted to 0.5 nM just prior to use (12 μL/6 mL for Factor XIa; 15 μL/6 mL for all of the rest.) • 2. Pipette 50 μL of substrate into each well of the 96 well (12×8) microtiter plate. (Column 1 is used as the 100% activity control and receives no compound, and Column 12 is the blank and receives no enzyme.) Add an additional 46 μL to column 2. • 3. Pipette 4 μL of each compound into the appropriate well in column 2 of the plate (unknowns assayed in triplicate, standard assayed in duplicate). The final compound concentration will be […] of the stock. • 4. Serially two-fold dilute the compound by mixing the sample in column 2, removing 50 μL to the next well (column 3), mix and remove to column 4, etc. until column 11. After mixing column 11, remove 50 μL and discard. • 5. Pipette 50 μL of buffer into column 12. Initiate the reaction by adding 50 μL of enzyme solution to each well of columns 1-11 as rapidly as possible. • 6. Read the plate in a spectrophotometer (SpectraMax) at 30° C., wherein each well is measured every 60 s for 30 min. For Factor Xa assays, each well is measured every 1 min for a total of 60 min. • 7. For Factor XIa assays, the compounds are assayed, in duplicate, at 3 different starting concentrations, 20, 2, and 0.2 μM; 1:10, 1:100, and 1:1000 dilution of 10 mM stock or at 2, 0.2, and 0.02 μM; 1:100, 1:1000, and 1:10,000 dilution of 10 mM stock. Data for each concentration are combined for graphing and data fitting. • 8. Data can be used both for estimation of IC50 and for estimation of Kon.

[3] = molecular target: Factor Xa (Homo sapiens (Human), UniProt P00742); assay: Dose response assay for protease inhibitors: Factor Xa; details: selectivity, Factor Xa over Factor XIa
Method: as §1

[4] = molecular target: Thrombin (Homo sapiens (Human), UniProt P00734); assay: Dose response assay for protease inhibitors: thrombin; details: selectivity, thrombin over Factor XIa
Method: as §1

Sequence of Factor XIa (P03951 388-625): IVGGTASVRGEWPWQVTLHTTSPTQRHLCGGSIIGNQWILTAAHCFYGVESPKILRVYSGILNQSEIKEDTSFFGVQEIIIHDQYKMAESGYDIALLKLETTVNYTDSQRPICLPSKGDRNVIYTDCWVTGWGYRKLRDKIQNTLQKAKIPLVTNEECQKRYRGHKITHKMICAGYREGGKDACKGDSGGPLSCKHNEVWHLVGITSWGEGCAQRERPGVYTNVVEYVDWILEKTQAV
Sequence of Factor XIa (P03951 19-387 partner): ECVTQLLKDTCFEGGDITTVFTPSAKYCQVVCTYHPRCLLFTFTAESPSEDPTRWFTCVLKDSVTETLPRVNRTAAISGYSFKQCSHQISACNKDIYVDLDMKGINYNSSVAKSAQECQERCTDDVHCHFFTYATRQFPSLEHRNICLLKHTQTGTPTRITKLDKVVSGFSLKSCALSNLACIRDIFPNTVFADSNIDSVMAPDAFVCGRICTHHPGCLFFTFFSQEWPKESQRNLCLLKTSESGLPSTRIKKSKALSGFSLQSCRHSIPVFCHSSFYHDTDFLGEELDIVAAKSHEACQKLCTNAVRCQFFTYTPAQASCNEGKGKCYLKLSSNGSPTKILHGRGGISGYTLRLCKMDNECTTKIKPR
Sequence of Factor Xa (P00742 235-488): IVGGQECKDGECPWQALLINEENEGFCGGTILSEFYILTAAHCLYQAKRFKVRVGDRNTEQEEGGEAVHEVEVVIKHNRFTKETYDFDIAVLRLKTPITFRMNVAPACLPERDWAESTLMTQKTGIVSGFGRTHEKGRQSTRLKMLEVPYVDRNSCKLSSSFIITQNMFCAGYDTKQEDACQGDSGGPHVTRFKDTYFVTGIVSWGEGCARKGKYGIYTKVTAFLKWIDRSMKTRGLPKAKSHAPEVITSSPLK
Sequence of Factor Xa (P00742 41-179 partner): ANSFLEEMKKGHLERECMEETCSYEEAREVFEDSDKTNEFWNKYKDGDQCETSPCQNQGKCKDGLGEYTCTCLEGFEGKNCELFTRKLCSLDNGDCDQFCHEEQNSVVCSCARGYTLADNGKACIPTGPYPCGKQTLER

| Molecule | IC50 [1] [nM] | Ratio: Trypsin/FXIa [2] | Ratio: FXa/FXIa [3] | Ratio: Thrombin/FXIa [4] |
| --- | --- | --- | --- | --- |
| CC[C@@H](NC(=O)N1C(=O)[C@H](Cc2ccnc(N)c2)[C@H]1C(=O)N(C)c1ccn(C)n1)c1cc(C)ccc1F [Compound 1-125, (2S,3R)-3-((2-aminopyridin-4-yl)methyl)-N2-(1-methyl-1H-pyrazol-3-yl)-N1-((R)-1-(2-fluoro-5-methylphenyl)propyl)-N2-methyl-4-oxoazetidine-1,2-dicarboxamide] | < 10 | G (“G” indicates 1-100) | I (“I” indicates > 500) | H (“H” indicates 101-1000) |
| (2S,3R)-3-((2-aminopyridin-4-yl)methyl)-N2-(1-methyl-1H-imidazol-4-yl)-N1-((R)-1-cyclohexyl-2,2,2-trifluoroethyl)-N2-methyl-4-oxoazetidine-1,2-dicarboxamide [Compound 1-70] | < 10 | G (“G” indicates 1-100) | I (“I” indicates > 500) | G (“G” indicates 1-100) |
| CC[C@@H](NC(=O)N1C(=O)[C@H](Cc2cc(C)nc(N)c2)[C@H]1C(=O)N(C)c1nccn1C)c1ccc(F)cc1 [Compound 1-106, (2S,3R)-3-((2-amino-6-methylpyridin-4-yl)methyl)-N2-(1-methyl-1H-imidazol-2-yl)-N1-((R)-1-(4-fluorophenyl)propyl)-N2-methyl-4-oxoazetidine-1,2-dicarboxamide] | < 10 | G (“G” indicates 1-100) | I (“I” indicates > 500) | H (“H” indicates 101-1000) |
| CC[C@@H](NC(=O)N1C(=O)[C@H](Cc2ccnc(N)c2)[C@H]1C(=O)N(C)c1ccn(C)n1)c1cccc(F)c1C [Compound 1-128, (2S,3R)-3-((2-aminopyridin-4-yl)methyl)-N2-(1-methyl-1H-pyrazol-3-yl)-N1-((R)-1-(2-methyl-3-fluorophenyl)propyl)-N2-methyl-4-oxoazetidine-1,2-dicarboxamide] | < 10 | G (“G” indicates 1-100) | H (“H” indicates 101-1000) | H (“H” indicates 101-1000) |
| CC[C@@H](NC(=O)N1C(=O)[C@H](Cc2cc(C)nc(N)c2)[C@H]1C(=O)N(C)c1ccn(C)n1)c1cc(F)ccc1F [Compound 1-144, (2S,3R)-3-((2-amino-6-methylpyridin-4-yl)methyl)-N2-(1-methyl-1H-pyrazol-3-yl)-N1-((R)-1-(2,5-difluorophenyl)propyl)-N2-methyl-4-oxoazetidine-1,2-dicarboxamide] | < 10 | G (“G” indicates 1-100) | I (“I” indicates > 500) | H (“H” indicates 101-1000) |
| CC[C@@H](NC(=O)N1C(=O)[C@H](Cc2ccnc(N)c2)[C@H]1C(=O)N(C)c1cn(C)cn1)c1cccc(Cl)c1 [Compound 1-25, (2S,3R)-3-((2-aminopyridin-4-yl)methyl)-N2-(1-methyl-1H-imidazol-4-yl)-N1-((R)-1-(3-chlorophenyl)propyl)-N2-methyl-4-oxoazetidine-1,2-dicarboxamide] | < 10 | G (“G” indicates 1-100) | H (“H” indicates 101-1000) | G (“G” indicates 1-100) |
| CC[C@@H](NC(=O)N1C(=O)[C@H](Cc2cc(C)nc(N)c2)[C@H]1C(=O)N(C)c1ccnn1C)c1cc(F)ccc1F [Compound 1-163, (2S,3R)-3-((2-amino-6-methylpyridin-4-yl)methyl)-N2-(1-methyl-1H-pyrazol-5-yl)-N1-((R)-1-(2,5-difluorophenyl)propyl)-N2-methyl-4-oxoazetidine-1,2-dicarboxamide] | < 10 | G (“G” indicates 1-100) | I (“I” indicates > 500) | I (“I” indicates > 500) |
| CC[C@@H](NC(=O)N1C(=O)[C@H](Cc2ccnc(N)c2)[C@H]1C(=O)N(C)c1nccn1C)c1ccc(C)c(Cl)c1 [Compound 1-103, (2S,3R)-3-((2-aminopyridin-4-yl)methyl)-N2-(1-methyl-1H-imidazol-2-yl)-N1-((R)-1-(3-chloro-4-methylphenyl)propyl)-N2-methyl-4-oxoazetidine-1,2-dicarboxamide] | < 10 | G (“G” indicates 1-100) | H (“H” indicates 101-1000) | H (“H” indicates 101-1000) |
| CC[C@@H](NC(=O)N1C(=O)[C@H](Cc2cc(C)nc(N)c2)[C@H]1C(=O)N(C)c1nccn1C)c1cc(C)ccc1F [Compound 1-112, (2S,3R)-3-((2-amino-6-methylpyridin-4-yl)methyl)-N2-(1-methyl-1H-imidazol-2-yl)-N1-((R)-1-(2-fluoro-5-methylphenyl)propyl)-N2-methyl-4-oxoazetidine-1,2-dicarboxamide] | 10 to 100 | G (“G” indicates 1-100) | I (“I” indicates > 500) | H (“H” indicates 101-1000) |
| CC[C@@H](NC(=O)N1C(=O)[C@H](Cc2cc(C)nc(N)c2)[C@H]1C(=O)N(C)c1ccn(C)n1)c1cccc(F)c1F [Compound 1-146, (2S,3R)-3-((2-amino-6-methylpyridin-4-yl)methyl)-N2-(1-methyl-1H-pyrazol-3-yl)-N1-((R)-1-(2,3-difluorophenyl)propyl)-N2-methyl-4-oxoazetidine-1,2-dicarboxamide] | < 10 | G (“G” indicates 1-100) | I (“I” indicates > 500) | H (“H” indicates 101-1000) |
| CC[C@@H](NC(=O)N1C(=O)[C@H](Cc2cc(C)nc(N)c2)[C@H]1C(=O)N(C)c1nccn1C)c1cc(C)ccc1Cl [Compound 1-111, (2S,3R)-3-((2-amino-6-methylpyridin-4-yl)methyl)-N2-(1-methyl-1H-imidazol-2-yl)-N1-((R)-1-(2-chloro-5-methylphenyl)propyl)-N2-methyl-4-oxoazetidine-1,2-dicarboxamide] | < 10 | G (“G” indicates 1-100) | H (“H” indicates 101-1000) | H (“H” indicates 101-1000) |
| CC[C@@H](NC(=O)N1C(=O)[C@H](Cc2ccnc(N)c2)[C@H]1C(=O)N(C)c1ccn(C)n1)c1ccc(C)c(Cl)c1 [Compound 1-129, (2S,3R)-3-((2-aminopyridin-4-yl)methyl)-N2-(1-methyl-1H-pyrazol-3-yl)-N1-((R)-1-(3-chloro-4-methylphenyl)propyl)-N2-methyl-4-oxoazetidine-1,2-dicarboxamide] | < 10 | G (“G” indicates 1-100) | H (“H” indicates 101-1000) | H (“H” indicates 101-1000) |
| CC[C@@H](NC(=O)N1C(=O)[C@H](Cc2cc(C)nc(N)c2)[C@H]1C(=O)N(C)c1nccn1C)c1ccc(C)cc1 [Compound 1-107, (2S,3R)-3-((2-amino-6-methylpyridin-4-yl)methyl)-N2-(1-methyl-1H-imidazol-2-yl)-N1-((R)-1-(4-methylphenyl)propyl)-N2-methyl-4-oxoazetidine-1,2-dicarboxamide] | 10 to 100 | G (“G” indicates 1-100) | I (“I” indicates > 500) | H (“H” indicates 101-1000) |
| CCc1cccc([C@@H](CC)NC(=O)N2C(=O)[C@H](Cc3ccnc(N)c3)[C@H]2C(=O)N(C)c2cnn(C)c2)c1 [Compound 1-16, (2S,3R)-3-((2-aminopyridin-4-yl)methyl)-N2-(1-methyl-1H-pyrazol-4-yl)-N1-((R)-1-(3-ethylphenyl)propyl)-N2-methyl-4-oxoazetidine-1,2-dicarboxamide] | < 10 | G (“G” indicates 1-100) | H (“H” indicates 101-1000) | G (“G” indicates 1-100) |

Reference: patent US11691962B2 (eXIthera Pharmaceuticals, Inc., priority 2018, dated 2023)
